As a reminder, the EC50 is the concentration giving half of the maximal effect.

This passage reports EC50 results from PubChem BioAssay AID588839 (The Scripps Research Institute Molecular Screening Center, 2011).

The target in this assay is cAMP-dependent protein kinase type I-alpha regulatory subunit (Bos taurus) + cAMP-dependent protein kinase catalytic subunit beta (Mus musculus) (UniProt P00514+P68181). Put plainly: PKA-R1A holoenzyme activators, late-stage follow-up, biochemical, fluorescence polarization, powder samples (AID 588839). The note with it: PKA-R1A dissociation, Cy5-IP20 fluorescence polarization.

Calls of active or inactive are those of the source.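 Rule for the calls: active = EC50 at or below 10 µM; inactive = EC50 above 10 µM.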

As for `O=C(O)c1sccc1SCc1ccc(Cl)c(Cl)c1`, the EC50 was > 100 µM (inactive).
Regarding `O=C(O)c1sccc1NC(=O)c1c(Cl)cccc1Cl`, the EC50 was > 100 µM (inactive).
Regarding `Cc1ccc(COc2ccsc2C(=O)O)cc1`, the EC50 was > 100 µM (inactive).
Consider `O=C(O)c1sc2ncccc2c1OCc1ccccc1`, for which the EC50 was > 100 µM (inactive).
With `CC(C)(C)c1ccc(COc2ccsc2C(=O)O)cc1`, the EC50 is > 100 µM (inactive).
Turning to `Cc1csc(C(=O)O)c1NC(=O)c1ccc(F)cc1`, the EC50 is > 100 µM (inactive).
As for `O=C(O)c1sccc1SCc1ccc(Cl)cc1Cl`, the EC50 is > 100 µM (inactive).
Then `COC(=O)c1sc2ncccc2c1OCc1ccccc1Cl`, with > 100 µM (inactive); and `COC(=O)c1sc2ncccc2c1OCc1ccc(Cl)cc1Cl`, with > 100 µM (inactive).
